One assay has as its system α2 -adrenoreceptor. The experiment in a line: neurogenic contractions of rat vas deferens (α2-adrenergic activity). The following applies: electrically stimulated rat vas deferens. Here is the method: (§1) In such determination, vas deferens of rat is suspended under tension between two platinum electrodes of an organ bath containing Tyrode's solution and contractile responses to electrical stimulation recorded. Agonist drug is added and EC50 values determined. After wash out, an antagonist drug is added and after a suitable period of contact with the tissue, the EC50 values of agonist in presence of antagonist are similarly determined.
(§2) These properties indicate suitability for use as an antidepressant.

The subject of the next assay is α1 -adrenoreceptor. The experiment in a line: neurogenic contractions of rat vas deferens (α1-adrenergic activity). As to conditions: electrically stimulated rat vas deferens. Here is the method: as §1, §2
For the next assay, the system named is vascular smooth muscle. The experiment in a line: inhibition of calcium induced contraction of vascular smooth muscle. Also on record: species or system male Sprague-Dawley rats. As to conditions: 10^-7 M; contraction induced by 1.0 mM calcium chloride in depolarized rat vascular smooth muscle. The method, then: The property may be observed in a test in which segments of vascular smooth muscle obtained from male Sprague-Dawley rats are suspended in physiological salt solution in a tissue bath instrumented for recording contractions. After the tissue has been equilibrated, washed in calcium-free physiological salt solution and then depolarized, 1.0 mM calcium chloride is re-added to induce contraction. After the contraction has reached a plateau, tissues are washed and a test compound or vehicle is added to determine the effect on a second contraction achieved by the above cyclic protocol. From measuring the initial contraction as well as the second contraction in the presence of the test compound, the extent of inhibition may be calculated.

Molecules are shown by their SMILES.

By inhibition is commonly meant the drop in the measured response relative to a control, in per cent.

In the case of `Brc1ccc2c(c1)C(N=C1NCCN1)c1ccccc1C=C2.I` (stereo not drawn) [N-(2-Imidazolidinylidene)-3-bromo-5H-dibenzo[a,d]cyclohepten-5-amine Hydroiodide], in the assay with α2 -adrenoreceptor (agonist clonidine), the “antagonism of the inhibition of contractions produced by clonidine” value is “antagonized the inhibition of contractions produced by clonidine”. In addition, the “antagonism of the response to methoxamine” value in the assay on α1 -adrenoreceptor (agonist methoxamine) is reported as “antagonized the response to methoxamine with a similar order of potency”. For the same molecule, the “effect on neurogenic contractions of the rat vas deferens when given alone” value with α1 -adrenoreceptor (compound alone) is recorded as “enhanced the neurogenic contractions of the rat vas deferens”. Also, in the assay on vascular smooth muscle, the inhibition at 0.1 µM worked out at 40%.

Turning to `C1=Cc2ccccc2C(N=C2NCCN2)c2ccccc21.I` [N-(2-Imidazolidinylidene)-5H-dibenzo[a,d]cyclohepten-5-amine Hydroiodide], the “effect on neurogenic contractions of the rat vas deferens” value in the assay with α2 -adrenoreceptor (antagonism by rauwolscine) is on record as “inhibit neurogenic contractions of the rat vas deferens which was antagonized by rauwolscine”. Besides, the inhibition at 0.1 µM with vascular smooth muscle was 56%.

(Values after patent US4590202A, “N-(2-imidazolidinylidene)-5H-dibenzo[a,d]cyclohepten-5-amine compounds and α2 -adrenergic antagonistic uses thereof” (Merck & Co., Inc., priority 1984, dated 1986).)
